{"source": "patent US20080268069A1", "about": "“Mixture having effect of improving insulin resistance, effect of suppressing body weight gain, and effect of preventing and improving fatty liver” (Ryusendo Co., Ltd., priority 2007, published 2008)", "format_in_all_cases": "in vivo", "key": {"[1]": {"test_system": "Zucker fa/fa rat", "test": "28-day feeding study: dietary intake, body weight gain, organ weights", "conditions": "compared to V group; for suppression of body weight gain: feeding period of 28 days", "experimental": "(§1) The Zucker fa/fa rat is polyphagous and used as an obesity model and also as a hyperinsulinemia or insulin resistance model.\nEight-week old Zucker fa/fa (Obesity model)\nVehicle (V) fa/fa Basic diet\nOnion (O) fa/fa Basic diet+5% Onion\n(§2) Dietary intake, body weight gain, liver weight, kidney weight, peritesticular fat weight, glucose tolerance test, blood glucose level, serum insulin, total serum cholesterol, serum triglyceride, serum free fatty acid, and serum leptin.\n(§3) Significant tests were carried out using the t test. Two-tailed tests were used for the V group, with significance expressed at p<0.05 (*) and p<0.01 (**)."}, "[2]": {"test_system": "Zucker fa/fa rat", "test": "Serum parameters and blood glucose level at autopsy", "conditions": "compared to V group", "experimental": "as §1, §2, §3\nAt autopsy, serum insulin and blood glucose level were measured."}, "[3]": {"test_system": "Zucker fa/fa rat", "test": "Glucose tolerance test", "experimental": "as §1, §3\nGlucose tolerance tests were carried out in each group of rats at the 2nd week (9-week old) and 4th (11-week old) week after the start of experiment. After 16 hours of fasting, each group of rats was forcedly allowed to ingest 2 g/kg body weight of D-glucose, followed by measuring blood glucose level with time."}}, "note": "“Also recorded” adds a separate entry of the source."}
{"substance": "trivalent chromium-nicotinic acid complex [Cr]", "values": [{"measurement": "weight of kidney", "setting": "[1]; 28 days feeding", "value": "no significant difference"}, {"measurement": "weight of peritesticular fat", "setting": "[1]; 28 days feeding", "value": "no significant difference"}, {"measurement": "suppression of body weight gain", "setting": "[1]", "value": "no significant difference"}, {"measurement": "suppression of body weight gain", "setting": "[1]; listed as trivalent chromium-nicotinic acid complex", "value": "neither the trivalent chromium-nicotinic acid complex alone nor the onion extract alone had the effect"}, {"measurement": "blood glucose level", "setting": "[2]; at autopsy", "value": "no significant difference"}, {"measurement": "serum insulin content", "setting": "[2]; at autopsy", "value": "no significant difference"}, {"measurement": "serum free fatty acid (FFA)", "setting": "[2]", "value": "No significant difference"}, {"measurement": "serum leptin", "setting": "[2]", "value": "No significant difference"}, {"measurement": "serum triglyceride (TG)", "setting": "[2]", "value": "no significant difference; also recorded: tendency of reduction"}, {"measurement": "total serum cholesterol (TC)", "setting": "[2]", "value": "No significant difference"}, {"measurement": "blood glucose level in glucose tolerance test", "setting": "[3]; 2nd and 4th week, after 2 g/kg D-glucose, no time point stated, compared to V group", "value": "no significant difference"}, {"measurement": "effect of improving insulin resistance", "setting": "[3]; conclusion from glucose tolerance test and serum insulin, 2 to 4 weeks", "value": "neither the trivalent chromium-nicotinic acid complex alone nor the onion extract alone had the effect"}]}
